Experimental data from patent US9661854B2, “Molecules having pesticidal utility, and intermediates, compositions, and processes, related thereto” (Dow AgroSciences LLC, priority 2015, dated 2017).

Experiments:
[1] = tested on: Beet Armyworm (Spodoptera exigua, LAPHEG); experiment: Bioassay on Beet Armyworm (BAW), 128-well diet tray assay; type: in vivo; conditions: 168 h, 50 μg/cm^2 on artificial diet, second instar larvae, 25° C., five to seven days, average of eight wells, read-out: BAW % Control (or Mortality) rating
Experimental: (§1) Example A: Bioassays on Beet Armyworm (Spodoptera exigua, LAPHEG) (“BAW”) and Cabbage Looper (Trichoplusia ni, TRIPNI) (“CL”)
(§2) Certain molecules disclosed in this document were tested against BAW and CL using procedures described in the following examples. In the reporting of the results, the “BAW & CL Rating Table” was used (See Table Section).
Bioassays on BAW were conducted using a 128-well diet tray assay. One to five second instar BAW larvae were placed in each well (3 mL) of the diet tray that had been previously filled with 1 mL of artificial diet to which 50 μg/cm^2 of the test molecule (dissolved in 50 μL of 90:10 acetone-water mixture) had been applied (to each of eight wells) and then allowed to dry. Trays were covered with a clear self-adhesive cover, vented to allow gas exchange, and held at 25° C., 14:10 light-dark for five to seven days. Percent mortality was recorded for the larvae in each well; activity in the eight wells was then averaged. The results are indicated in the table entitled “Table ABC: Biological Results” (See Table Section).

[2] = tested on: Cabbage Looper (Trichoplusia ni, TRIPNI); experiment: Bioassay on Cabbage Looper (CL), 128-well diet tray assay; type: in vivo; conditions: 168 h, 50 μg/cm^2 on artificial diet, second instar larvae, 25° C., five to seven days, average of eight wells, read-out: CL % Control (or Mortality) rating
Experimental: as §1, §2
Bioassays on CL were conducted using a 128-well diet tray assay. One to five second instar CL larvae were placed in each well (3 mL) of the diet tray that had been previously filled with 1 mL of artificial diet to which 50 μg/cm^2 of the test molecule (dissolved in 50 μL of 90:10 acetone-water mixture) had been applied (to each of eight wells) and then allowed to dry. Trays were covered with a clear self-adhesive cover, vented to allow gas exchange, and held at 25° C., 14:10 light-dark for five to seven days. Percent mortality was recorded for the larvae in each well; activity in the eight wells was then averaged. The results are indicated in the table entitled “Table ABC: Biological Results” (See Table Section).

CCC(C)Oc1ccc(C)cc1N1C(=O)CS/C1=N\C(=O)Nc1ccc(CCc2ncn(-c3ccc(OC(F)(F)F)cc3)n2)cc1F (stereo not drawn) [F24, (Z)-1-(3-(2-(sec-Butoxy)-5-methylphenyl)-4-oxothiazolidin-2-ylidene)-3-(2-fluoro-4-(2-(1-(4-(trifluoromethoxy)phenyl)-1H-1,2,4-triazol-3-yl)ethyl)phenyl)urea]
mortality at 50 µg/cm2 [1]: 50 to 100%
mortality at 50 µg/cm2 [2]: 50 to 100%

CC(C)c1ccc(C(F)(F)F)cc1N1C(=O)CS/C1=N\C(=O)Nc1ccc(CCc2ncn(-c3ccc(OC(F)(F)F)cc3)n2)cc1F [F27, (Z)-1-(2-Fluoro-4-(2-(1-(4-(trifluoromethoxy)phenyl)-1H-1,2,4-triazol-3-yl)ethyl)phenyl)-3-(3-(2-isopropyl-5-(trifluoromethyl)phenyl)-4-oxothiazolidin-2-ylidene)urea]
mortality at 50 µg/cm2 [1]: 50 to 100%
mortality at 50 µg/cm2 [2]: 50 to 100%

Cc1ccc(OC(C)(C)C)c(N2C(=O)CS/C2=N\C(=O)Nc2ccc(/C=C/c3ncn(-c4ccc(OC(F)(F)F)cc4)n3)cc2)c1 [F52, 1-((Z)-3-(2-(tert-Butoxy)-5-methylphenyl)-4-oxothiazolidin-2-ylidene)-3-(4-((E)-2-(1-(4-(trifluoromethoxy)phenyl)-1H-1,2,4-triazol-3-yl)vinyl)phenyl)urea]
mortality at 50 µg/cm2 [1]: 50 to 100%
mortality at 50 µg/cm2 [2]: 50 to 100%

CCC(C)Oc1ccc(C)cc1N1C(=O)CS/C1=N\C(=O)Nc1ccc(CCc2ncn(-c3ccc(OC(F)(F)F)cc3)n2)cc1 (stereo not drawn) [F10, (Z)-1-(3-(2-(sec-Butoxy)-5-methylphenyl)-4-oxothiazolidin-2-ylidene)-3-(4-(2-(1-(4-(trifluoromethoxy)phenyl)-1H-1,2,4-triazol-3-yl)ethyl)phenyl)urea]
mortality at 50 µg/cm2 [1]: 50 to 100%
mortality at 50 µg/cm2 [2]: 50 to 100%

COC(=O)c1cc(/C=C/c2ncn(-c3ccc(OC(F)(F)F)cc3)n2)ccc1NC(=O)/N=C1\SCC(=O)N1c1cc(C)ccc1C(C)C [F54, Methyl 2-(3-((Z)-3-(2-isopropyl-5-methylphenyl)-4-oxothiazolidin-2-ylidene)ureido)-5-((E)-2-(1-(4-(trifluoromethoxy)phenyl)-1H-1,2,4-triazol-3-yl)vinyl)benzoate]
mortality at 50 µg/cm2 [1]: 50 to 100%
mortality at 50 µg/cm2 [2]: 50 to 100%

O=C(/N=C1\SCC(=O)N1C1CCCCC1)Nc1ccc(CCc2ncn(-c3ccc(OC(F)(F)F)cc3)n2)cc1 [F35, (Z)-1-(3-Cyclohexyl-4-oxothiazolidin-2-ylidene)-3-(4-(2-(1-(4-(trifluoromethoxy)phenyl)-1H-1,2,4-triazol-3-yl)ethyl)phenyl)urea]
mortality at 50 µg/cm2 [1]: 50 to 100%
mortality at 50 µg/cm2 [2]: 50 to 100%

CCCc1ccc(C)cc1N1C(=O)CS/C1=N\C(=O)Nc1ccc(/C=C/c2ncn(-c3ccc(OC(F)(F)F)cc3)n2)cc1 [F45, 1-((Z)-3-(5-Methyl-2-propylphenyl)-4-oxothiazolidin-2-ylidene)-3-(4-((E)-2-(1-(4-(trifluoromethoxy)phenyl)-1H-1,2,4-triazol-3-yl)vinyl)phenyl)urea]
mortality at 50 µg/cm2 [1]: 50 to 100%
mortality at 50 µg/cm2 [2]: 50 to 100%

COc1cc(/C=C/c2ncn(-c3ccc(OC(F)(F)F)cc3)n2)ccc1NC(=O)/N=C1\SCC(=O)N1c1cc(C)ccc1C(C)C [F58, 1-((Z)-3-(2-isopropyl-5-methylphenyl)-4-oxothiazolidin-2-ylidene)-3-(2-methoxy-4-((E)-2-(1-(4-(trifluoromethoxy)phenyl)-1H-1,2,4-triazol-3-yl)vinyl)phenyl)urea]
mortality at 50 µg/cm2 [1]: 50 to 100%
mortality at 50 µg/cm2 [2]: 50 to 100%

O=C(/N=C1\SCC(=O)N1C1CCCCC1)Nc1ccc(/C=C/c2ncn(-c3ccc(OC(F)(F)F)cc3)n2)cc1F [F78, 1-((Z)-3-Cyclohexyl-4-oxothiazolidin-2-ylidene)-3-(2-fluoro-4-((E)-2-(1-(4-(trifluoromethoxy)phenyl)-1H-1,2,4-triazol-3-yl)vinyl)phenyl)urea]
mortality at 50 µg/cm2 [1]: 50 to 100%
mortality at 50 µg/cm2 [2]: 50 to 100%
